Patent US7550459B2, “Tetrahydroquinoline analogues as muscarinic agonists” (Acadia Pharmaceuticals, Inc., priority 2001, dated 2009)
Read-outs that look alike come from different tables or passages of the source.

Tests used:
Format in all cases: cell-based
[1] = molecular target: T1, M2 muscarinic receptor (Homo sapiens, UniProt P08172); experiment: Receptor Selection and Amplification (R-SAT) assay, cloned M2 receptor; conditions: for Emax: read-out: m2 % Efficacy
T1 construct: expressed in transfected cells
T1 sequence (P08172 1-466): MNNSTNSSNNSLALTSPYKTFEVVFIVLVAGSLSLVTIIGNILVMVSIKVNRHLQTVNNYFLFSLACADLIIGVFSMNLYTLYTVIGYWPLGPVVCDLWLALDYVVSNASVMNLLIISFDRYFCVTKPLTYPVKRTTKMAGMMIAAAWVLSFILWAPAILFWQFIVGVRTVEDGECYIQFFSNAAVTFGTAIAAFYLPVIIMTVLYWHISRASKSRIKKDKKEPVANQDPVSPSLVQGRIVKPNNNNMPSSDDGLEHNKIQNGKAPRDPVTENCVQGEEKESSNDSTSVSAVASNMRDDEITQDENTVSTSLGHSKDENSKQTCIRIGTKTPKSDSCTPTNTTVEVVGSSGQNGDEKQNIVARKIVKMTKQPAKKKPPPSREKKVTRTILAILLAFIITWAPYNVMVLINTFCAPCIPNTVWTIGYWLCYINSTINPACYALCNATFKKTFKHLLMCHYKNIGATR
Excerpt: (§1) The EC50 for an agonist is intended to denote the concentration of a compound needed to achieve 50% of a maximal response seen in an in vitro assay such as R-SAT. For inverse agonists, EC50 is intended to denote the concentration of a compound needed to achieve 50% inhibition of an R-SAT response from basal, no compound, levels.
(§2) A particularly convenient functional assay system is the receptor selection and amplification assay (R-SAT assay) in U.S. Pat. No. 5,707,798, which describes a method of screening for bioactive compounds by utilizing the ability of cells transfected with receptor DNA, e.g., coding for the different muscarinic subtypes, to amplify in the presence of a ligand of the receptor. Cell amplification is detected as increased levels of a marker also expressed by the cells.
(§3) Receptor Selection and Amplification (R-SAT) assays were carried out using the cloned M1-M5 receptors essentially as described in: Brauner-Osborne H, Brann M R. Pharmacology of muscarinic acetylcholine receptor subtypes (m1-m5): high throughput assays in mammalian cells. Eur J Pharmacol Jan. 4, 1996;295(1):93-102, and Spalding T A, Trotter C, Skjaerbaek N, Messier T L, Currier E A, Burstein E S, Li D, Hacksell U, Brann M R. Discovery of an ectopic activation site on the M(1) muscarinic receptor. Mol Pharmacol. 2002 June;61(6):1297-302.

[2] = molecular target: T2, M4 muscarinic receptor (Homo sapiens, UniProt P08173); experiment: Receptor Selection and Amplification (R-SAT) assay, cloned M4 receptor; conditions: for Emax: read-out: m4 % Efficacy
T2 construct: expressed in transfected cells
T2 sequence (P08173 1-479): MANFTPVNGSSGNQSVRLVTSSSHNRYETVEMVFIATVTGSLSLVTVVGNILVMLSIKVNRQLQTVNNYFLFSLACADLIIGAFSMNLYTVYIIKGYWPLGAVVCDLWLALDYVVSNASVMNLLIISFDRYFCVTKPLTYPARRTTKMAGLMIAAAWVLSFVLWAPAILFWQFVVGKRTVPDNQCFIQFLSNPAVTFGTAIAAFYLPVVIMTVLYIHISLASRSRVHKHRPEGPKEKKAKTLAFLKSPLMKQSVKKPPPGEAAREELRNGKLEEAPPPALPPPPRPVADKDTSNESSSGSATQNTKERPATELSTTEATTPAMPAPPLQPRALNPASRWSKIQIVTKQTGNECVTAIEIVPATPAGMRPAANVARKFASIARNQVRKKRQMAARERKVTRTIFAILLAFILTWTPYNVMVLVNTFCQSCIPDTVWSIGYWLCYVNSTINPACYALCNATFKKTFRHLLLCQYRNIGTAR
Excerpt: as §1, §2, §3

[3] = molecular target: T3, M1 muscarinic receptor (Homo sapiens, UniProt P11229); experiment: Receptor Selection and Amplification (R-SAT) assay, cloned M1 receptor; conditions: for Emax: read-out: m1 % Efficacy
T3 construct: expressed in transfected cells
T3 sequence (P11229 1-460): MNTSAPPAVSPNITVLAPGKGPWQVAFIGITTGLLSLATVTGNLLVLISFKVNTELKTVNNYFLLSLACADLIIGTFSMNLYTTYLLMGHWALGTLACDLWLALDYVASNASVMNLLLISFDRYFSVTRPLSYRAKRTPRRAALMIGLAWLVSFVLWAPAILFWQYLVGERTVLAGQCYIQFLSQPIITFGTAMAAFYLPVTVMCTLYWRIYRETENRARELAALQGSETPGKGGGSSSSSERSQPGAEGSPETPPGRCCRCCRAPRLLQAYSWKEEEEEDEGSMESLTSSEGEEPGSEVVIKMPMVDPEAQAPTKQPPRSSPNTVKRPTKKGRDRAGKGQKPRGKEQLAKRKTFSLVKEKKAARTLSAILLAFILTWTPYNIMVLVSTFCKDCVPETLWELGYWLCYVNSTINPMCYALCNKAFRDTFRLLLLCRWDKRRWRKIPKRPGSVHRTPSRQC
Excerpt: as §1, §2, §3

[4] = R-SAT, cloned m2 receptor, read-out: m2 pEC50 (converted)
[5] = R-SAT, cloned m4 receptor, read-out: m4 pEC50 (converted)
[6] = R-SAT, cloned m1 receptor, read-out: m1 pEC50 (converted)
[7] = m2 pEC50, R-SAT, cloned m2 receptor
[8] = m1 pEC50, R-SAT, cloned m1 receptor
[9] = R-SAT, second table (COMPOUND ID series)

Row | Emax ([1]; R-SAT, cloned m2 receptor) [%] | EC50 [1, 4] [µM] | Emax ([2]; R-SAT, cloned m4 receptor) [%] | EC50 [2, 5] [µM] | Emax ([3]; R-SAT, cloned m1 receptor) [%] | EC50 [3, 6] [µM] | SMILES | other results
1 | 35 | 0.631 | 68 | 1 | 72 | 0.0501 | CCCCC1CCN(CCCN2CCCc3ccccc32)CC1 [Compound 55-LH-12-2, 1-[3-(4-Butyl-piperidin-1-yl)-propyl]-1,2,3,4-tetrahydro-quinoline] | 
2 | 67 | > 3.16 | 64 | > 3.16 | 45 | 0.2 | CCCCC1CCN(CCCN2c3ccccc3CCC2C)CC1 (stereo not drawn) [Compound 55-LH-28-8, 1-[3-(4-Butyl-piperidin-1-yl)-propyl]-2-methyl-1,2,3,4-tetrahydro-quinoline] | 
3 |  |  | 28 | > 3.16 | 54 | 0.316 | CCCCC1CCN(CCCN2CCCc3cc(C)ccc32)CC1 [Compound 55LH44-A, 1-[3-(4-Butyl-piperidin-1-yl)-propyl]-6-methyl-1,2,3,4-tetrahydro-quinoline] | 
4 | 31 | 0.126 | 52 | 0.251 | 86 | 0.0631 | CCCCC1CCN(CCCN2CCOc3ccc(C)cc32)CC1 [Compound 64LHY91-6, 4-[3-(4-Butyl-piperidin-1-yl)-propyl]-6-methyl-3,4-dihydro-2H-benzo[1,4]oxazine] | 
5 |  |  | 37 | > 3.16 | 55 | 0.2 | CCCCC1CCN(CCCN2c3cc(F)ccc3CCC2C)CC1 (stereo not drawn) [Compound 77LH02-1917, 1-[3-(4-Butyl-piperidin-1-yl)-propyl]-7-fluoro-2-methyl-1,2,3,4-tetrahydro-quinoline] | 
6 |  |  |  |  |  |  | CCCCCC1CC2CCC(C1)N2C[C@@H](C)CN1C(=O)CCc2ccccc21 (stereo partly drawn) [Compound 107LH55, (R)-1-[2-Methyl-3-(3-pentyl-8-azabicyclo[3.2.1]oct-8-yl)propyl]-3,4-dihydro-1H-quinolin-2-one] | EC50 [1, 7]: 0.0316 µM; Emax [1]: 28%; EC50 [2]: 0.0501 µM; Emax [2]: 54%; EC50 [3, 8]: 0.00126 µM; Emax [3]: 103%
7 |  |  |  |  |  |  | CCCCCC1CC2CCC(C1)N2C[C@@H](C)CN1C(=O)COc2ccccc21 (stereo partly drawn) [Compound 108LM39-36, (R)-4-[2-Methyl-3-(3-pentyl-8-azabicyclo[3.2.1]oct-8-yl)propyl]-4H-benzo[1,4]oxazin-3-one] | EC50 [1, 7]: 0.00794 µM; Emax [1]: 37%; EC50 [2]: 0.02 µM; Emax [2]: 71%; EC50 [3, 8]: 0.00158 µM; Emax [3]: 106%
8 |  |  |  |  |  |  | CCCC[C@]1(O)C[C@H]2CC[C@@H](C1)N2C[C@@H](C)CN1C(=O)COc2ccccc21 [Compound 00261478, (R)-4-[3-(3β-Butyl-3a-hydroxy-8-aza-bicyclo[3.2.1]oct-8-yl)-2-methyl-propyl]-1H-benzo[1,4]oxazin-3-one] | M2 Eff [1, 9]: 40; EC50 ([1]; R-SAT, second table (COMPOUND ID series), read-out: M2 pEC50 (converted)): 1.26 µM; M1 Eff [3, 9]: 105; EC50 ([3]; R-SAT, second table (COMPOUND ID series), read-out: M1 pEC50 (converted)): 1.58 µM
